Data as given in patent US11518758B2, “Heteroarylaminopyrimidine amide autophagy inhibitors and methods of use thereof” (Deciphera Pharmaceuticals, LLC, priority 2019, dated 2022).
pIC50: −log10 of the molar value.

Assays:
ULK1 kinase = target: T1, ULK1 kinase (Homo sapiens, UniProt O75385); assay: Biochemical assay for ULK1.2 (coupled pyruvate kinase/lactate dehydrogenase assay); settings: 19 nM ULK1 (Eurofins), myelin basic protein, 1 mM ATP
T1 construct: purchased Eurofins 14-959
T1 sequence (O75385 with tags, fused parts or gaps): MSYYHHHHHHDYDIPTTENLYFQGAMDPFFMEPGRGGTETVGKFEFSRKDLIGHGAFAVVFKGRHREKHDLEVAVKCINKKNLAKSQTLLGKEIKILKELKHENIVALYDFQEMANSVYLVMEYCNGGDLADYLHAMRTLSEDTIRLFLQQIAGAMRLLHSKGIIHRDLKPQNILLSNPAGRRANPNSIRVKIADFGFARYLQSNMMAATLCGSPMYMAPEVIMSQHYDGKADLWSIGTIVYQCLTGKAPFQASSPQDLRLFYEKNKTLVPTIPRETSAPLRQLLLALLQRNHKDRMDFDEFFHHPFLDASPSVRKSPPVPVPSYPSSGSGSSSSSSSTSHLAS
Method: Example 174. Biochemical Assay for ULK1.2
Activity of ULK1 kinase was determined spectroscopically using a coupled pyruvate kinase/lactate dehydrogenase assay that continuously monitors the ATP hydrolysis-dependent oxidation of NADH (e.g., Schindler et al. Science (2000) 289: 1938-1942). Assays were conducted in 384-well plates (100 uL final volume) using 19 nM ULK1 (Eurofins CAT #14-959), 0.25 mg/mL myelin basic protein, 1.5 units pyruvate kinase, 2.1 units lactate dehydrogenase, 1 mM phosphoenol pyruvate, 0.28 mM NADH and 1 mM ATP in assay buffer (100 mM Tris, pH 7.5, 15 mM MgCl2, 0.5 mM DTT, 0.1% octyl-glucoside, 0.002% (w/v) BSA, and 0.002% Triton X-100). Inhibition of ULK1 was measured by adding serial diluted test compound (final assay concentration of 1% DMSO). A decrease in absorption at 340 nm was monitored continuously for 6 hours at 30° C. on a multi-mode microplate reader (BioTek). The reaction rate was calculated using the 2-3 h time frame. The reaction rate at each concentration of compound was converted to percent inhibition using controls (i.e. reaction with no test compound and reaction with a known inhibitor) and IC50 values were calculated by fitting a four-parameter sigmoidal curve to the data using Prism (GraphPad software).

[1] = system: phospho-Serine 318 ATG13 (pATG13), ULK kinase substrate, in A549 (KRAS mutant) cells; assay: pATG13 levels of mutant KRas A549 cells after treatment with ULK inhibitors in combination with trametinib (ELISA); assay type: cell-based, human; settings: with 250 nM trametinib
Method: Example 177. Cellular Inhibition of ULK Kinase Substrate ATG13 Protein pATG13 Levels of Mutant KRas A549 Cells after Treatment with ULK Inhibitors in Combination with Trametinib
A549 (KRAS mutant) human lung cancer cells (6,000 cells/well) were added to a 384-well tissue-culture treated plate in 50 μL of pre-warmed DMEM medium supplemented with 10% characterized fetal bovine serum (Invitrogen, Carlsbad, Calif.), 100 units/mL penicillin G, and 100 μg/mL streptomycin and allowed to grow overnight at 37° C., 5% CO2, and 95% humidity. The following day, 10 μL of media containing trametinib or DMSO as a control was added to wells. The final concentration of trametinib in wells was 250 nM. A dose response of a test compound (0.6 μL per well) was added. DMSO (0.6 μL) was added to control wells. The plate was briefly shaken to mix wells and then incubated at 37° C. overnight. The next day, the media was aspirated and cells were washed with Dulbecco's Phosphate Buffered Saline (Gibco). Cells were lysed using MPER lysis buffer (Pierce, Rockford, Ill.) containing Halt Phosphatase and Protease Inhibitors (Pierce, Rockford, Ill.) and Phosphatase inhibitor cocktail 2 (Sigma, St. Louis, Mo.) at 4° C. for 10 minutes with shaking.
Cellular levels of phospho-Serine 318 ATG13 (pATG13) were measured via an ELISA method. Total ATG13 Antibody (Cell Signaling Cat #13273) was used to coat the wells. The plate was incubated at 4° C. overnight and washed with ELISA wash buffer (Biolegend Cat #421601). The wells were then blocked with assay diluent (Biolegend Cat #421203) for 1 hour at room temperature. Plate wells were washed with ELISA wash buffer. Cell lysate was added to wells and incubated at room temperature for 2 hours. Plate wells were washed with ELISA wash buffer. Biotinylated pS318-ATG13 antibody (Rockland Immunochemicals Cat #600-401-C49) was diluted in assay diluent and added to each well and incubated at room temperature for 1 hour. Plate wells were washed with ELISA wash buffer. Streptavidin linked to horseradish peroxidase (Thermo Fisher Cat #21140) was diluted in assay diluent and added to each well and incubated at room temperature for 1 hour. Plate wells were washed with ELISA wash buffer. High sensitivity TMB substrate (Biolegend Cat #421101) was added to each well and incubated at room temperature for 20 minutes. The reaction was stopped with 2N Sulfuric Acid. The plate was analyzed at on a plate reader measuring absorbance at 450 nm and 540 nm (background). Signal was calculated by first subtracting the background absorbance at 540 nm from the absorbance at 450 nm for each well. Next, the background corrected absorbance at 450 nm from blank wells was subtracted from test wells. Data was compared to control wells to determine % ATG13 phosphorylation. GraphPad Prism was used to calculate IC50 values.

Cc1nn(C2CN(CC(C)C)C2)cc1Nc1ncc(Br)c(NCCCN2CCCC2=O)n1 [Example 154]
pIC50 (ULK1 kinase): < 6.30

Cc1nn([C@@H]2CCN(C)C2)cc1Nc1ncc(Cl)c(NCCCN2CCCC2=O)n1 [Example 160]
pIC50 (ULK1 kinase): < 6.30

[2H]C([2H])([2H])N1CCC(n2cc(Nc3ncc(Cl)c(NCCCN4CCCCC4=O)n3)c(C)n2)CC1 [Example 57]
pIC50 (ULK1 kinase): 6.30 to 7.00

CC(C)N1CCC(n2cc(Nc3ncc(Cl)c(NCCCN4CCCCC4=O)n3)cn2)CC1 [Example 5]
pIC50 (ULK1 kinase): 7.00 to 7.60

CCc1nn(C2CCN(C)CC2)cc1Nc1ncc(C(F)(F)F)c(NCCCN2CCCCC2=O)n1 [Example 47]
pIC50 (ULK1 kinase): 7.60 to 9.00

CCN1CCC(n2cc(Nc3ncc(C(F)(F)F)c(NCCCN4CCCCC4=O)n3)c(C)n2)CC1 [Example 37]
pIC50 (ULK1 kinase): 7.60 to 9.00

Cc1nn(CCN2CCOCC2)cc1Nc1ncc(Br)c(NCCCN2CCCCC2=O)n1 [Example 63]
pIC50 (ULK1 kinase): < 6.30

Cc1nn(CCN2CCOCC2)cc1Nc1ncc(Cl)c(NCCCN2CCCC2=O)n1 [Example 163]
pIC50 (ULK1 kinase): < 6.30

O=C1CCCCN1CCCNc1nc(Nc2cnn(C3CCNCC3)c2)ncc1Br [Example 9]
pIC50 [1]: < 6.22 | pIC50 (ULK1 kinase): 7.60 to 9.00

Cc1nn(C2CN(CC(C)C)C2)cc1Nc1ncc(C(F)(F)F)c(NCCCN2CCCC2=O)n1 [Example 128]
pIC50 (ULK1 kinase): 7.60 to 9.00

CC1(C)CCC(=O)N1CCCNc1nc(Nc2cnn(C3CCN(C4CC4)CC3)c2)ncc1Cl [Example 149]
pIC50 (ULK1 kinase): 6.30 to 7.00

CC(C)CN1CC(n2cc(Nc3ncc(Cl)c(NCCCN4CCCCC4=O)n3)cn2)C1 [Example 11]
pIC50 (ULK1 kinase): 6.30 to 7.00

CC(C)N1CCC(n2cc(Nc3ncc(C(F)(F)F)c(NCCCN4CCCCCC4=O)n3)cn2)CC1 [Example 88]
pIC50 (ULK1 kinase): 7.60 to 9.00

[2H]C([2H])([2H])N1CCC(n2cc(Nc3ncc(Br)c(NCCCN4CCCCC4=O)n3)c(C)n2)CC1 [Example 49]
pIC50 (ULK1 kinase): 7.60 to 9.00

Cc1nn([C@@H]2CCNC2)cc1Nc1ncc(C(F)(F)F)c(NCCCN2CCCC2=O)n1 [Example 169]
pIC50 (ULK1 kinase): 6.30 to 7.00

Cc1nn(CCCN2CCOCC2)cc1Nc1ncc(C(F)(F)F)c(NCCCN2CCCOCC2=O)n1 [Example 112]
pIC50 (ULK1 kinase): 6.30 to 7.00

CCc1nn(C2CCN(CC)CC2)cc1Nc1ncc(C(F)(F)F)c(NCCCN2CCCCC2=O)n1 [Example 42]
pIC50 (ULK1 kinase): 7.00 to 7.60

Cc1nn(CCCN2CCCCC2)cc1Nc1ncc(C(F)(F)F)c(NCCCN2CCCCC2=O)n1 [Example 28]
pIC50 (ULK1 kinase): 7.00 to 7.60

Cc1nn(C2CCN(C3CCC3)CC2)cc1Nc1ncc(C(F)(F)F)c(NCCCN2CCCCCC2=O)n1 [Example 92]
pIC50 (ULK1 kinase): 7.60 to 9.00

Cc1nn([C@@H]2CCN(C(C)C)C2)cc1Nc1ncc(C(F)(F)F)c(NCCCN2CCCCC2=O)n1 [Example 36]
pIC50 (ULK1 kinase): 7.00 to 7.60

Cc1nn([C@@H]2CCN(C)C2)cc1Nc1ncc(Cl)c(NCCCN2CCOCCC2=O)n1 [Example 134]
pIC50 (ULK1 kinase): 6.30 to 7.00

CCc1nn(C2CCN(C(C)C)CC2)cc1Nc1ncc(C(F)(F)F)c(NCCCN2CCCCC2=O)n1 [Example 43]
pIC50 (ULK1 kinase): 7.00 to 7.60

Cc1nn(CCCN(C)C)cc1Nc1ncc(C(F)(F)F)c(NCCCN2CCCCC2=O)n1 [Example 35]
pIC50 (ULK1 kinase): 7.00 to 7.60

Cc1nn([C@@H]2CCN(C(C)C)C2)cc1Nc1ncc(C(F)(F)F)c(NCCCN2CCCCCC2=O)n1 [Example 95]
pIC50 (ULK1 kinase): 7.60 to 9.00

CC(C)CN1CC(n2cc(Nc3ncc(C(F)(F)F)c(NCCCN4CCCCCC4=O)n3)cn2)C1 [Example 97]
pIC50 (ULK1 kinase): 7.60 to 9.00

Cc1nn([C@@H]2CCNC2)cc1Nc1ncc(C(F)(F)F)c(NCCCN2CCCCC2=O)n1 [Example 34]
pIC50 (ULK1 kinase): 7.60 to 9.00

CN1CCC(n2cc(Nc3ncc(C(F)(F)F)c(NCCCN4CCN(C)C4=O)n3)cn2)CC1 [Example 151]
pIC50 (ULK1 kinase): 7.60 to 9.00

Cc1nn(C2CCN(C(C)C)CC2)cc1Nc1ncc(C(F)(F)F)c(NCCCN2CCCCCC2=O)n1 [Example 85]
pIC50 (ULK1 kinase): 7.60 to 9.00

Cc1nn(CCN2CCCC2)cc1Nc1ncc(Cl)c(NCCCN2CCCC2=O)n1 [Example 162]
pIC50 (ULK1 kinase): < 6.30

Cc1nn(C2CN(CC(C)C)C2)cc1Nc1ncc(Cl)c(NCCCN2CCCC2=O)n1 [Example 161]
pIC50 (ULK1 kinase): < 6.30

Cc1nn(C2CCN(CC(C)C)CC2)cc1Nc1ncc(C(F)(F)F)c(NCCCN2CCCCCC2=O)n1 [Example 89]
pIC50 (ULK1 kinase): 7.60 to 9.00

CCN1CCC(n2cc(Nc3ncc(Br)c(NCCCN4CCCCC4=O)n3)c(C)n2)CC1 [Example 50]
pIC50 (ULK1 kinase): 7.00 to 7.60

Cc1nn(CCN2CCCCC2)cc1Nc1ncc(C(F)(F)F)c(NCCCN2CCCCC2=O)n1 [Example 22]
pIC50 (ULK1 kinase): 6.30 to 7.00

Cc1nn([C@H]2CCNC2)cc1Nc1ncc(C(F)(F)F)c(NCCCN2CCCC2=O)n1 [Example 167]
pIC50 (ULK1 kinase): 6.30 to 7.00

CCc1nn(C2CCN(CC)CC2)cc1Nc1ncc(Cl)c(NCCCN2CCCCC2=O)n1 [Example 46]
pIC50 (ULK1 kinase): 6.30 to 7.00

Cc1nn(C2CCN(C3CCCC3)CC2)cc1Nc1ncc(C(F)(F)F)c(NCCCN2CCCCCC2=O)n1 [Example 93]
pIC50 (ULK1 kinase): 7.60 to 9.00

[2H]C([2H])([2H])N1CCC(n2cc(Nc3ncc(C(F)(F)F)c(NCCCN4CCCCC4=O)n3)c(CC)n2)CC1 [Example 52]
pIC50 (ULK1 kinase): 7.60 to 9.00

Cc1nn([C@@H]2CCN(C)C2)cc1Nc1ncc(Cl)c(NCCCN2CCCCC2=O)n1 [Example 24]
pIC50 (ULK1 kinase): 6.30 to 7.00

CCN1CCC(n2cc(Nc3ncc(C(F)(F)F)c(NCCCN4CCCC4=O)n3)c(C)n2)CC1 [Example 82]
pIC50 (ULK1 kinase): 6.30 to 7.00

Cc1nn(C2CCN(CCF)CC2)cc1Nc1ncc(C(F)(F)F)c(NCCCN2CCCCC2=O)n1 [Example 59]
pIC50 (ULK1 kinase): 7.00 to 7.60

[2H]C([2H])([2H])N1CCC(n2cc(Nc3ncc(C(F)(F)F)c(NCCCN4CCCCCC4=O)n3)c(C)n2)CC1 [Example 101]
pIC50 (ULK1 kinase): 7.60 to 9.00

Cc1nn(C2CCN(CC3CC3)CC2)cc1Nc1ncc(C(F)(F)F)c(NCCCN2CCCCC2=O)n1 [Example 19]
pIC50 (ULK1 kinase): 7.60 to 9.00

CN1CCC(n2cc(Nc3ncc(C(F)(F)F)c(NCCCN4CCCCC4=O)n3)cn2)CC1 [Example 10]
pIC50 (ULK1 kinase): 7.60 to 9.00

Cc1nn(C2CCN(C(C)C)CC2)cc1Nc1ncc(Cl)c(NCCCN2CCCCCC2=O)n1 [Example 87]
pIC50 (ULK1 kinase): 7.00 to 7.60

Cc1nn([C@H]2CCNC2)cc1Nc1ncc(C(F)(F)F)c(NCCCN2CCCCC2=O)n1 [Example 65]
pIC50 (ULK1 kinase): 7.60 to 9.00

CC1CCN(CCCNc2nc(Nc3cnn(C4CCN(C5CC5)CC4)c3)ncc2Cl)C1=O (stereo not shown) [Example 155]
pIC50 (ULK1 kinase): 6.30 to 7.00

CN1CCN(CCCNc2nc(Nc3cnn(C4CCN(C5CC5)CC4)c3)ncc2Cl)C1=O [Example 148]
pIC50 (ULK1 kinase): 6.30 to 7.00

CCc1nn(C2CCN(C(C)C)CC2)cc1Nc1ncc(C(F)(F)F)c(NCCCN2CCCOC2=O)n1 [Example 70]
pIC50 (ULK1 kinase): 7.00 to 7.60

Cc1nn(CCCN2CCOCC2)cc1Nc1ncc(C(F)(F)F)c(NCCCN2CCCCC2=O)n1 [Example 30]
pIC50 (ULK1 kinase): 6.30 to 7.00

CCc1nn(C2CCN(C)CC2)cc1Nc1ncc(Cl)c(NCCCN2CCCCC2=O)n1 [Example 55]
pIC50 (ULK1 kinase): 6.30 to 7.00

Cc1nn([C@@H]2CCNC2)cc1Nc1ncc(Cl)c(NCCCN2CCCC2=O)n1 [Example 158]
pIC50 (ULK1 kinase): < 6.30
